According to PubChem BioAssay (NCI):
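Values below derive from 48-hour exposures of cells grown in 96-well plates, with endpoints linearly interpolated between the two concentrations bracketing the appropriate inhibition level. TGI is the concentration that stops growth completely.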

Assays:
Test in all cases: growth of human tumour cells (NCI), 48 h
OVCAR-3 ovarian = tested on: OVCAR-3 ovarian
SK-MEL-28 melanoma = tested on: SK-MEL-28 melanoma
NCI-H460 lung = tested on: NCI-H460 lung
DMS 114 small cell lung = tested on: DMS 114 small cell lung
A498 renal = tested on: A498 renal
SN12C renal = tested on: SN12C renal
HOP-18 NSCLC = tested on: HOP-18 NSCLC
RPMI-8226 leukemia = tested on: RPMI-8226 leukemia
SF-268 CNS = tested on: SF-268 CNS
HOP-62 NSCLC = tested on: HOP-62 NSCLC
UACC-257 melanoma = tested on: UACC-257 melanoma
UACC-62 melanoma = tested on: UACC-62 melanoma
M19-MEL melanoma = tested on: M19-MEL melanoma
MOLT-4 leukemia = tested on: MOLT-4 leukemia
SNB-19 CNS = tested on: SNB-19 CNS
SNB-75 CNS = tested on: SNB-75 CNS
RXF 393 renal = tested on: RXF 393 renal
M14 melanoma = tested on: M14 melanoma
KM12 colon = tested on: KM12 colon
SF-539 CNS = tested on: SF-539 CNS
ACHN renal = tested on: ACHN renal
HCT-116 colon = tested on: HCT-116 colon
SNB-78 CNS = tested on: SNB-78 CNS
EKVX NSCLC = tested on: EKVX NSCLC
SK-MEL-2 melanoma = tested on: SK-MEL-2 melanoma
COLO 205 colon = tested on: COLO 205 colon
A549 NSCLC = tested on: A549 NSCLC
786-0 renal = tested on: 786-0 renal
DMS 273 small cell lung = tested on: DMS 273 small cell lung
UO-31 renal = tested on: UO-31 renal
HT29 colon = tested on: HT29 colon
U251 CNS = tested on: U251 CNS
HCC-2998 colon = tested on: HCC-2998 colon
K-562 leukemia = tested on: K-562 leukemia
NCI-H226 lung = tested on: NCI-H226 lung
NCI-H522 lung = tested on: NCI-H522 lung
IGROV1 ovarian = tested on: IGROV1 ovarian
MALME-3M melanoma = tested on: MALME-3M melanoma
HCT-15 colon = tested on: HCT-15 colon
CCRF-CEM leukemia = tested on: CCRF-CEM leukemia
LXFL 529 NSCLC = tested on: LXFL 529 NSCLC
KM20L2 colon = tested on: KM20L2 colon
DLD-1 colon = tested on: DLD-1 colon
SR leukemia = tested on: SR leukemia
OVCAR-4 ovarian = tested on: OVCAR-4 ovarian
SK-OV-3 ovarian = tested on: SK-OV-3 ovarian
HOP-92 NSCLC = tested on: HOP-92 NSCLC
HL-60(TB) leukemia = tested on: HL-60(TB) leukemia
SW-620 colon = tested on: SW-620 colon
SF-295 CNS = tested on: SF-295 CNS
TK-10 renal = tested on: TK-10 renal
NCI-H23 lung = tested on: NCI-H23 lung
XF 498 CNS = tested on: XF 498 CNS
OVCAR-8 ovarian = tested on: OVCAR-8 ovarian
LOX IMVI melanoma = tested on: LOX IMVI melanoma
OVCAR-5 ovarian = tested on: OVCAR-5 ovarian
CAKI-1 renal = tested on: CAKI-1 renal

## Nc1ccccc1C(=O)C(Br)C(Br)c1ccc2c(c1)OCO2 (stereo unspecified)
OVCAR-3 ovarian
  TGI: 36.1 µM
SK-MEL-28 melanoma
  TGI: 70.4 µM
NCI-H460 lung
  TGI: 39.2 µM
DMS 114 small cell lung
  TGI: 40.2 µM
A498 renal
  TGI: 60.7 µM
SN12C renal
  TGI: 72.5 µM
HOP-18 NSCLC
  TGI: 44.4 µM
RPMI-8226 leukemia
  TGI: > 100 µM
SF-268 CNS
  TGI: 91.5 µM
HOP-62 NSCLC
  TGI: 51 µM
UACC-257 melanoma
  TGI: 44.9 µM
UACC-62 melanoma
  TGI: 35.2 µM
M19-MEL melanoma
  TGI: 39.6 µM
MOLT-4 leukemia
  TGI: > 100 µM
SNB-19 CNS
  TGI: 89 µM
SNB-75 CNS
  TGI: 60.9 µM
RXF 393 renal
  TGI: 49.9 µM
M14 melanoma
  TGI: 41.3 µM
KM12 colon
  TGI: 33.8 µM
SF-539 CNS
  TGI: 33.8 µM
ACHN renal
  TGI: 51 µM
HCT-116 colon
  TGI: 31.1 µM
SNB-78 CNS
  TGI: 81 µM
EKVX NSCLC
  TGI: 52 µM
SK-MEL-2 melanoma
  TGI: 35.2 µM
COLO 205 colon
  TGI: 27.4 µM
A549 NSCLC
  TGI: 57.3 µM
786-0 renal
  TGI: > 100 µM
DMS 273 small cell lung
  TGI: 34 µM
UO-31 renal
  TGI: 45.1 µM
HT29 colon
  TGI: 34.4 µM
U251 CNS
  TGI: 49.6 µM
HCC-2998 colon
  TGI: 42.5 µM
K-562 leukemia
  TGI: > 100 µM
NCI-H226 lung
  TGI: 52.2 µM
NCI-H522 lung
  TGI: 48.1 µM
IGROV1 ovarian
  TGI: > 100 µM
MALME-3M melanoma
  TGI: 39 µM
HCT-15 colon
  TGI: 48.1 µM
CCRF-CEM leukemia
  TGI: > 100 µM
LXFL 529 NSCLC
  TGI: 46 µM
KM20L2 colon
  TGI: 31 µM
DLD-1 colon
  TGI: > 100 µM
SR leukemia
  TGI: > 100 µM
OVCAR-4 ovarian
  TGI: 59.8 µM
SK-OV-3 ovarian
  TGI: 84.4 µM
HOP-92 NSCLC
  TGI: 39.5 µM
HL-60(TB) leukemia
  TGI: > 100 µM
SW-620 colon
  TGI: > 100 µM
SF-295 CNS
  TGI: > 100 µM
TK-10 renal
  TGI: 72.7 µM
NCI-H23 lung
  TGI: 47.4 µM
XF 498 CNS
  TGI: 34 µM
OVCAR-8 ovarian
  TGI: 91.5 µM
LOX IMVI melanoma
  TGI: 27.8 µM

## O=C(CC1(O)C(=O)Nc2c(Cl)ccc(Cl)c21)c1ccc(Cl)cc1Cl (stereo unspecified)
OVCAR-3 ovarian
  TGI: 30.9 µM
SK-MEL-28 melanoma
  TGI: 38.8 µM
NCI-H460 lung
  TGI: 38.3 µM
DMS 114 small cell lung
  TGI: 37.4 µM
A498 renal
  TGI: 42.5 µM
SN12C renal
  TGI: 30.5 µM
HOP-18 NSCLC
  TGI: > 100 µM
RPMI-8226 leukemia
  TGI: 43.7 µM
SF-268 CNS
  TGI: 62.9 µM
HOP-62 NSCLC
  TGI: 59.5 µM
UACC-257 melanoma
  TGI: 25.1 µM
UACC-62 melanoma
  TGI: 34.9 µM
M19-MEL melanoma
  TGI: 20.1 µM
SNB-19 CNS
  TGI: > 100 µM
SNB-75 CNS
  TGI: 46.9 µM
RXF 393 renal
  TGI: 42.3 µM
M14 melanoma
  TGI: 25.9 µM
KM12 colon
  TGI: 30.9 µM
SF-539 CNS
  TGI: 39.8 µM
ACHN renal
  TGI: 30.5 µM
HCT-116 colon
  TGI: 33.1 µM
OVCAR-5 ovarian
  TGI: 35.6 µM
SNB-78 CNS
  TGI: > 100 µM
EKVX NSCLC
  TGI: 44 µM
SK-MEL-2 melanoma
  TGI: 48.9 µM
COLO 205 colon
  TGI: 31.7 µM
A549 NSCLC
  TGI: 47.2 µM
786-0 renal
  TGI: 27.8 µM
DMS 273 small cell lung
  TGI: 37.8 µM
UO-31 renal
  TGI: 37.1 µM
HT29 colon
  TGI: 33.3 µM
U251 CNS
  TGI: 21.9 µM
HCC-2998 colon
  TGI: 32.2 µM
NCI-H226 lung
  TGI: 30.5 µM
IGROV1 ovarian
  TGI: 35.4 µM
MALME-3M melanoma
  TGI: 34.9 µM
HCT-15 colon
  TGI: > 100 µM
LXFL 529 NSCLC
  TGI: 29.3 µM
KM20L2 colon
  TGI: > 100 µM
DLD-1 colon
  TGI: > 100 µM
OVCAR-4 ovarian
  TGI: 23.3 µM
SK-OV-3 ovarian
  TGI: 46.6 µM
HOP-92 NSCLC
  TGI: 49.6 µM
SW-620 colon
  TGI: 56.6 µM
SF-295 CNS
  TGI: 41.6 µM
TK-10 renal
  TGI: > 100 µM
NCI-H23 lung
  TGI: 43.3 µM
XF 498 CNS
  TGI: 33.9 µM
OVCAR-8 ovarian
  TGI: 41.6 µM
LOX IMVI melanoma
  TGI: 28.3 µM
CAKI-1 renal
  TGI: 64.2 µM
